Measurements: patent US8772031B2, “Composition for reprogramming somatic cells to generate induced pluripotent stem cells, comprising Oct4 in combination with Bmi1 or its upstream regulator, and method for generating induced pluripotent stem cells using the same” (Korea University Research and Business Foundation, priority 2009, dated 2014)

How the values were obtained:
Format in all cases: cell-based
[1] = tested on: Bmi1 expression in mouse embryonic fibroblasts; experiment: Bmi1 expression by treatment with Shh or Shh analog (RT-PCR of downstream genes) under neural stem cell-culturing conditions; conditions: for expression of Gli1 and Bmi1 (RT-PCR) / expression of the Bmi1 target genes p16^Ink4a and p19^Arf (RT-PCR): DMEM/F12+B27+N2+bFGF+EGF; for Sox2 expression level: culture condition for neural stem cells
Protocol: Mouse embryonic fibroblasts were employed to generate embryonic stem cell-like cells. Embryos were taken from CF1 strain mice on embryonic day 13.5. Cells were cultured in DMEM (high glucose, w/o sodium pyruvate) supplemented with 10% FBS (Fetal bovine serum), 0.1 mM non-essential amino acid, 1% penicillin/streptomycin and 0.1 mM β-mercaptoethanol in tissue culture flasks, after which fibroblasts at the 3rd passage were seeded at a density of 2×10^5 cells/well into 6-well plates.
(§1) The fibroblasts prepared in Example 1 were examined for Bmi1 expression when they were treated with Shh or an analog thereof, such as oxysterol or purmorphamine. FIGS. 9A, 14A and 22A are RT-PCR results showing the effect of Shh (Sonic hedgehog), known as an upstream regulator of Bmi1, or its analogs on the expression of genes downstream thereof.

[2] = tested on: mouse embryonic fibroblasts; experiment: Reprogramming of treated fibroblasts into neural stem cell-like cells (morphology, AP staining, immunochemistry); conditions: neural stem cell-culturing conditions, immunochemistry for SSEA1, Nestin, Sox2
Protocol: as §1
The induced neural stem cell-like cells were positively analyzed by AP staining and immunochemistry for SSEA1, Nestin and Sox2 (FIGS. 9C, 14C and 22C).

[3] = tested on: mouse embryonic fibroblasts; experiment: Generation of iPS cells by retroviral Oct4 introduction during treatment with Shh or its analog, then embryonic stem cell culture conditions; conditions: Oct4 retrovirus three times at 16 hr intervals, treatment for 72 hrs, reprogramming process for 10-14 days
[4] = tested on: adult mouse embryonic fibroblasts; experiment: Establishment of iPS cells (OO-iPS-TTF #1, 2) by Oct4 introduction during treatment with oxysterol; conditions: oxysterol 0.1 μM and 0.5 μM with Oct4 introduction
Source text: The reprogramming method established with mouse embryonic fibroblasts was applied to adult mouse embryonic fibroblasts. […] 00-iPS-TTF #1 and 2 were positively stained with AP and found to express SSEA1, Oct4, Sox2, and Nanog as measured by immunochemical staining assays (FIG. 19A).

[5] = 0.5 μM or 1 μM of purmorphamine
[6] = 0.1 μM and 0.5 μM of hydroxycholesterol

SMILES | expression of Gli1 and Bmi1 (RT-PCR) [1, 5] | expression of the Bmi1 target genes p16^Ink4a and p19^Arf (RT-PCR) [1, 5] | Sox2 expression level [1] | morphology and neural stem cell markers of the treated cells [2] | appearance of ES cell-like colonies [3] | expression of Gli1 and Bmi1 (RT-PCR) [1, 6] | expression of the Bmi1 target genes p16^Ink4a and p19^Arf (RT-PCR) [1, 6] | derivation of embryonic stem cell-like cells from adult fibroblasts [4]
c1ccc2c(Oc3nc(Nc4ccc(N5CCOCC5)cc4)c4ncn(C5CCCCC5)c4n3)cccc2c1 [purmorphamine, 2-(1-Naphthoxy)-6-(4-morpholinoanilino)-9-cyclohexylpurine] | upregulation | downregulation | increase | morphology similar to that of neural stem cells and express nestin and sox2 | colonies appeared with the same morphology as ES cells |  |  | 
C[C@H](CCCC(C)(C)O)[C@H]1CC[C@H]2[C@@H]3CC=C4C[C@@H](O)CC[C@]4(C)[C@H]3CC[C@]12C [hydroxycholesterol, 25-hydroxycholesterol] |  |  | increase | morphology similar to that of neural stem cells and express nestin and sox2 | colonies appeared with the same morphology as ES cells | upregulation | downregulation | allowed the derivation of embryonic stem cell-like cells
